US20140105879A1, “FLOUR-BASED FUNCTIONAL FOOD” (priority 2011, published 2014)

System: HMG-CoA reductase
Assay: action on the enzyme HMG-CoA reductase (further experimental data)
Excerpt: Therefore, the functional bread to which vegetable extracts have been added according to the present invention is capable of exerting a functional, salutary action in prevention and treatment of cholesterol and triglyceride levels exceeding the reference values, in addition to an action of protecting the arteries and the cardio-circulatory system and a hepatoprotective and antioxidant action, thanks to the synergistic biochemical actions of the phytocomplexes included in the bread, which enable an enhanced bioactivity thereof to be obtained in the resulting product.

- action on the enzyme HMG-CoA reductase: reducing the quantity thereof
Compound: CCCCCCCCCCCCCCCCCCCCCCCCCCCCO [octacosanol]
